Results from patent US20250257060A1, “OXADIAZOLE COMPOUND, PHARMACEUTICAL COMPOSITION COMPRISING SAME, AND USE THEREOF” (SUZHOU GENHOUSE BIO CO., LTD., priority 2022, published 2025).
Like-named read-outs stand apart in the source and are kept apart here.

Assays:
HDAC6 = HDAC6 (Homo sapiens (Human), UniProt Q9UBN7); experiment: HDAC6 enzymatic activity assay; type: biochemical
In short: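 Recombinant HDAC6 with compound and Ac-GAK(Ac)-AMC substrate ([…]), 37° C. for 30 min, then developed with trypsin plus TSA for 15 min at room temperature. IC50 from curve fitting.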

[1] = Brain-to-blood drug concentration ratio of mice; type: in vivo; settings: mouse; for Kp at 1 h / Kp at 4 h: brain/plasma
In short: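 Mice (9/group) dosed once IV or PO; orbital blood into K2-EDTA tubes for plasma, with brain homogenate, processed by acetonitrile precipitation (propafenone internal standard) and measured by LC-MS/MS. Ratio taken as brain tissue concentration over plasma concentration at the same time point.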

[2] = system: acetylation level of α-tubulin in HCC827 cells; experiment: Assay on acetylation level of α-tubulin, HCC827 cells; type: cell-based; settings: Homo sapiens, 6 h
Procedure: (§1) A375/HCT116/HCC827 cells at a logarithmic growth phase were taken, digested with a […] (trypsin), centrifuged, counted, and plated in a 96-well plate at an appropriate cell density (30,000 cells/well) at 100 µL/well, and an appropriate amount of PBS was added around the plate for water sealing. The next day, the cells were treated with the compounds at different concentrations (starting at 100 μM, 5-fold dilution, 9 concentration gradients). After 6 h, the medium was pipetted out and the cells were washed twice with 100 μL of PBST. The cells were then immobilized in 4% paraformaldehyde, and the plate was incubated at room temperature for 20 min. The stationary liquid was discarded and the cells were washed with PBST. 150 μL of special blocking buffer (containing 1% Triton-100) was added to each well for blocking at room temperature for 2 h, and the plate was washed with PBS to remove excess blocking buffer. α-tubulin (DM1A) mouse mAb and acetyl-α-tubulin (Lys40) (D20G3) XP rabbit mAb were diluted at a 1:2000 ratio with a blocking buffer containing 0.033% Triton-100. The dilutions were added to the 96-well plate and the plate was incubated overnight at 4° C. Meanwhile, a blank control group was set. The next day, the plate was washed twice with PBST. […] Fluorescence signals at 700 nm and 800 nm were detected with a Li-COR Odyssey two-color near-infrared laser imager.

HDAC1 = HDAC1 (Homo sapiens (Human), UniProt Q13547); experiment: HDAC subtype enzymatic activity assay, HDAC1; type: biochemical; settings: read-out: HADC1 Inhibition rate (%)
Procedure: The inhibitory activity of the compounds of the present application on HDAC1-5 and 7-11 was evaluated by an enzymatic activity assay.
1 M Trypsin and 10 M TSA were added, and the plate was incubated at room temperature for 15 min. […] IC50 was obtained by fitting using GraphPadPrism 7.0 software.

[3] = system: acetylation level of α-tubulin in A375 cells; experiment: Assay on acetylation level of α-tubulin, A375 cells; type: cell-based; settings: Homo sapiens, A-375, 6 h
Procedure: as §1

[4] = brain, 2 mg/kg IV, read-out: Brain drug concentration
[5] = brain, 10 mg/kg PO, read-out: Brain drug concentration
[6] = plasma, 2 mg/kg IV, read-out: Blood drug concentration
[7] = plasma, 10 mg/kg PO, read-out: Blood drug concentration

Chain of HDAC1 (Q13547 whole entry): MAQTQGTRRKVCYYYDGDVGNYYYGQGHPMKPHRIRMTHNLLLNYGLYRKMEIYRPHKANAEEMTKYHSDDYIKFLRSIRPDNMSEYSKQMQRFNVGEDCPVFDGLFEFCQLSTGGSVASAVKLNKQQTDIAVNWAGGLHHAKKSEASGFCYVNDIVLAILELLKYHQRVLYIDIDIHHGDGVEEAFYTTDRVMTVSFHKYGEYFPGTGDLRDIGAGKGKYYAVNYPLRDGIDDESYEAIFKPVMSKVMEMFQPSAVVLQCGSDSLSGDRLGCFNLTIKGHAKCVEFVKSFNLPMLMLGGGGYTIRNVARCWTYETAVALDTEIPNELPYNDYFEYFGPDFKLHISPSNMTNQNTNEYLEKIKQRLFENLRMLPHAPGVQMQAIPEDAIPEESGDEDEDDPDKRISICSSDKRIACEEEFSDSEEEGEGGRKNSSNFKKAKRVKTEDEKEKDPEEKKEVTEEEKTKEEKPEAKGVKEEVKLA
Chain of HDAC6 (Q9UBN7 whole entry): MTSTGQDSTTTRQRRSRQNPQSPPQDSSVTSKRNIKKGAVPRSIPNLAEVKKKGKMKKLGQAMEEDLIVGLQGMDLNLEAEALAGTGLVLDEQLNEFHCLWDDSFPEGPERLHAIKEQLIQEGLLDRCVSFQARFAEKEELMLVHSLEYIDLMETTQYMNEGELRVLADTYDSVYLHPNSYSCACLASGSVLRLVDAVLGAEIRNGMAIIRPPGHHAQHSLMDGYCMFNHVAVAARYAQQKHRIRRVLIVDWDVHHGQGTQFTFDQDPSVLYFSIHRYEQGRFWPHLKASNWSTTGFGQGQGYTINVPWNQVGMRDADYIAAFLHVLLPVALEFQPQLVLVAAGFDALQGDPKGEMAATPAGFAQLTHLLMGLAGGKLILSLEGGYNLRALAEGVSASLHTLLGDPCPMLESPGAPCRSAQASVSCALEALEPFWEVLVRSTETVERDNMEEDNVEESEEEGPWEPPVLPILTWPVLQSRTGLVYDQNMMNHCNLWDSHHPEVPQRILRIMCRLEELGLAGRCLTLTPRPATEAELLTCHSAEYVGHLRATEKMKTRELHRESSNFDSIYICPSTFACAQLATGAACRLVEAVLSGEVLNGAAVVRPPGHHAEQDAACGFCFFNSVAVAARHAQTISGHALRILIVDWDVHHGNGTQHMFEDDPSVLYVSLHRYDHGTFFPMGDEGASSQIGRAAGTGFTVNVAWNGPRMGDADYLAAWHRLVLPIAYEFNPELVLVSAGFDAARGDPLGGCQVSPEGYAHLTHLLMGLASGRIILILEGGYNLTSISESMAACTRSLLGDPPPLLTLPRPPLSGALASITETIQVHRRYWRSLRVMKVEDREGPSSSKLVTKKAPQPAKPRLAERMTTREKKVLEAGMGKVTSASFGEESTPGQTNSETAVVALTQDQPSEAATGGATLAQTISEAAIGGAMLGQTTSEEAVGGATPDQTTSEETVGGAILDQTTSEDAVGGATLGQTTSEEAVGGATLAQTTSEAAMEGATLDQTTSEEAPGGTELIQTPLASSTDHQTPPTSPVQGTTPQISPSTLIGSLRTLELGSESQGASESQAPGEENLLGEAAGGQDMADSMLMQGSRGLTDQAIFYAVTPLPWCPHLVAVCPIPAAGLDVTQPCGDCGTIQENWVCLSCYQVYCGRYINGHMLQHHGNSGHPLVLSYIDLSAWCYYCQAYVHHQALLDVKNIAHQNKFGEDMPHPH

inhibition at 1 µM (HDAC1; 1 μM) [%] | inhibition at 10 µM (HDAC1; 10 μM) [%] | Compound | IC50 (HDAC6) [nM] | concentration at 1 h [1, 4] [ng/mL] | concentration at 4 h [1, 4] [ng/mL] | concentration at 1 h [1, 5] [ng/mL] | concentration at 4 h [1, 5] [ng/mL] | Kp at 1 h ([1]; 2 mg/kg IV) | Kp at 4 h ([1]; 2 mg/kg IV) | Kp at 1 h ([1]; 10 mg/kg PO) | Kp at 4 h ([1]; 10 mg/kg PO) | concentration at 1 h [1, 6] [ng/mL] | concentration at 4 h [1, 6] [ng/mL] | concentration at 1 h [1, 7] [ng/mL] | concentration at 4 h [1, 7] [ng/mL] | EC50 [2] [nM] | inhibition at 1 µM (HDAC1) [%] | inhibition at 10 µM (HDAC1) [%] | EC50 [3] [nM]
– | – | O=C(N[C@H]1[C@H](N2Cc3ccc(-c4nnc(C(F)F)o4)cc3S2(=O)=O)CCCC1(F)F)C(F)F [Compound 61] | 63 | – | – | – | – | – | – | – | – | – | – | – | – | – | – | – | –
– | – | O=C(N[C@@H]1CCCC[C@H]1N1Cc2ccc(-c3nnc(C(F)F)o3)cc2S1(=O)=O)C(F)F [Compound 2] | – | 268 | 149 | 882 | 435 | 0.26 | 0.25 | 0.18 | 0.15 | 1090 | 595 | 4990 | 2830 | 288 ± 49.3 | -11.9 | -3.91 | 202 ± 115
8.57 | -3.17 | CC(F)(F)C(=O)N[C@@H]1CCCC[C@H]1N1Cc2ccc(-c3nnc(C(F)F)o3)cc2S1(=O)=O [Compound 1] | 59 | 285 | 161 | 759 | 373 | 0.29 | 0.36 | 0.18 | 0.15 | 986 | 453 | 4270 | 2500 | 338 | – | – | 393 ± 192
